What all share (assay type): cell-based, human
Series [1] has as its system IQGAP2 gene. Put plainly: IQGAP2 silencing by shRNA, gene and protein expression (HaCaT). The settings on record: HaCaT cells; lentiviral transduction; 72 hours; FIG. 3. The text has this: (§1) To verify whether the abnormal IQGAP2 affected cell proliferation, IQGAP2-silenced cells were constructed using an RNAi approach. Since TSC could affect the skin and kidney of the patients, human keratinocytes (HaCaT) cells and human embryonic kidney 293 (HEK 293) cells were chosen as cell models. The shRNA sequence was designed and constructed for the IQGAP2 gene (as shown in Table 1), and IQGAP2-silenced HaCaT cells and IQGAP2-silenced HEK293 cells were obtained by lentiviral transduction. Subsequently, the cell proliferation of IQGAP2-silenced cells was detected at 24, 48, and 72 hours by using Cell Counting Kit 8 (CCK8).
(§2) The results were shown in FIGS. 3 to 4, and FIG. 3 depicted the gene expression level of IQGAP2-silenced human keratinocytes cells and IQGAP2-silenced human embryonic kidney 293 cells at 72 hours. […] And Control represented a control group, shGFP represented the empty vector control group, sh IQ IQGAP2-1, sh IQ IQGAP2-2, and sh IQ IQGAP2-3 represented the corresponding shRNA-1 to shRNA-3 primer silencing groups (repeated in triplicate for each group), respectively, and GAPDH represented the internal reference gene.

For a further series, the system named is HaCaT cells. Put plainly: Dose-dependent cell viability, preliminary IC50 experiment (HaCaT). To be noted: FIG. 6.
The test system of another series is HEK293 cells. Put plainly: Dose-dependent cell viability, preliminary IC50 experiment (HEK293). To be noted: FIG. 6.
In another series the test system is IQGAP2-silenced cells. Put plainly: Cell proliferation of IQGAP2-silenced cells after administration of inhibitors (CCK8). To be noted: IQGAP2-silenced HaCaT and HEK293 cells; each inhibitor in a dose of IC50; FIG. 7 and FIG. 8.
Series [2] has as its system IQGAP2 gene. As to the kind of experiment: IQGAP2 silencing by shRNA, gene and protein expression (HEK293). To be noted: HEK293 cells; lentiviral transduction; 72 hours; FIG. 3.
Source text: as §1, §2

Source text for IQGAP2-silenced cells: That is, the pathway was further determined by verifying whether the cell proliferation caused by IQGAP2 silencing can be alleviated by inhibiting the AKT activity and mTORC1 activity (key factors of the mTOR pathway) in IQGAP2-silenced cells with the inhibitors.
Then, HaCaT cells and HEK293 cells were administrated with each inhibitor in a dose of IC50.

Consider “IQGAP2-shRNA-3: IQGAP2-silenced shRNA sequence 5′-GCTCCAGATGGCTTTGATATC-3′ (SEQ ID NO. 3) (GCUCCAGAUGGCUUUGAUAUC)”, for which, in the series on IQGAP2 gene [1], the IQGAP2 silencing result was “optimum silencing”.
For orientation: IC50 means the concentration needed to halve the response being measured. A higher IC50 goes with lower potency. Consider `O=c1[nH]c2ccccc2n1C1CCN(Cc2ccc(-c3nc4cc5[nH]cnc5cc4nc3-c3ccccc3)cc2)CC1` [AKT inhibitor VIII], for which the IC50 with HaCaT cells was found to be 25 µM; with HEK293 cells, 12.5 µM. Besides, the “cell proliferation of IQGAP2-silenced cells” value in the series on IQGAP2-silenced cells is “reduce the cell proliferation”.
Consider `CO[C@H]1C[C@@H]2CC[C@@H](C)[C@@](O)(O2)C(=O)C(=O)N2CCCC[C@H]2C(=O)O[C@H]([C@H](C)C[C@@H]2CC[C@@H](O)[C@H](OC)C2)CC(=O)[C@H](C)/C=C(\C)[C@@H](O)[C@@H](OC)C(=O)[C@H](C)C[C@H](C)/C=C/C=C/C=C/1C` [Rapamycin], for which the figures for the IC50 with HaCaT cells (Homo sapiens) and in the series on HEK293 cells (Homo sapiens) were 50 µM and 12.5 µM, respectively.
Regarding “IQGAP2-shRNA-1: IQGAP2-silenced shRNA sequence 5′-GCTCCTACCTACTGCGAATAT-3′ (SEQ ID NO. 1) (GCUCCUACCUACUGCGAAUAU)”, the IQGAP2 silencing entry in the series with IQGAP2 gene [2] is listed as “optimum silencing”.

The record behind these values is patent US20250257401A1, “BIOMARKER FOR TUBEROUS SCLEROSIS COMPLEX WITH NO MUTATION IDENTIFIED IN TSC1 OR TSC2 GENE, AND USES THEREOF” (Guangzhou KingMed Transformative Medicine Institute Co., …, priority 2022, published 2025).
